Measured values as given in patent US20260000694A1, “METHODS AND COMPOSITIONS RELATED TO PREBIOTIC FORMULATIONS USEFUL IN PROMOTING UROGENITAL HEALTH” (KIMBERLY-CLARK WORLDWIDE, INC., priority 2022, published 2026).
Values joined by “and” are separate entries in the source; they are usually repeats but may differ in a detail not shown here. Equal entries are not always repeated.

tested on: Lactobacillus crispatus KC18-1173-1; assay: Competition (co-culture) assay: recovery of L. crispatus after exposure to prebiotics; format: cell-based; settings: change vs start, background growth in media without prebiotic subtracted; co-culture, 48 hours; one value per replicate
Description: (§1) The methods used herein were adapted from Vongsa et al. The method used in this particular example is as follows: • 1. A stock was created using a single prebiotic, a prebiotic mixture, or the positive control (glucose) in API 50 CHL media (Biomerieux, Marcy-l'Étoile, France). API 50 CHL media containing minimal amounts of carbon for growth and bromocresol purple as a pH indicator of fermentation. The stock media was filter-sterilized with a 0.22 μM filter and store at 4-6° C. • 2. From a freezer stock, the bacteria were subcultured twice into De Man, Rogosa, and Sharpe (MRS) broth (BD Difco, Becton Dickinson, Franklin Lakes, NJ) and incubated at 37° C. anaerobically overnight until stationary. • 3. The second MRS broth subculture was plated onto an MRS agar plate for Lactobacillus crispatus KC18-1173-1 or blood agar for Streptococcus anginosus KC18-1131-3B and incubated at 37° C. anaerobically overnight until stationary. • 4. A bacterial suspension was created for each bacterium using a sterile tipped swab to transfer colonies into API suspension media (Biomerieux, Marcy-l'Étoile, France) to reach the turbidity of a 2 MacFarland standard. • 5. The starting culture was enumerated. • 6. 9.8 mL of the prebiotic media was added into a sterile 15 mL conical tube. • 7. 100 μL of each prepared bacterial suspension was added to the media, and it was incubated anaerobically at 37° C. for 48 hours. • 8. 100 μL were harvested from each tube containing the bacteria and prebiotic media, it was serially diluted, and plated onto MRS agar and tryptic soy agar (TSA). • 9. The bacteria were enumerated on MRS agar (both L. crispatus and S. anginosus). Small colonies were counted as S. anginosus, and large colonies were counted as L. crispatus. • 10. S. anginosus was enumerated on TSA plates. […] Background growth of bacteria in the negative control (CHL media without prebiotics) was subtracted from the growth recovered in the presence of the prebiotic mixture. • 12. Statistical analysis was performed using Student's t-test. The significance level was set at p<0.05.

Row | SMILES | L. crispatus Δ on MRS
1 | CO[C@H]1O[C@H](CO)[C@@H](O)[C@H](O)[C@H]1O [α-Methyl-D-Glucoside (2.0), α-Methyl-D-Glucoside] | 1.90 Log CFU/mL and 1.39 Log CFU/mL and 0.70 Log CFU/mL
2 | OC[C@H]1O[C@@H](O[C@@H]2[C@@H](CO)OC(O)(CO)[C@H]2O)[C@H](O)[C@@H](O)[C@H]1O (mixture of isomers) [Lactulose (2.0), Lactulose] | 2.38 Log CFU/mL and 2.80 Log CFU/mL and 2.58 Log CFU/mL and 2.60 Log CFU/mL and 2.69 Log CFU/mL
3 | OC[C@@H](O)[C@@H](O[C@@H]1O[C@H](CO)[C@H](O)[C@H](O)[C@H]1O)[C@H](O)[C@@H](O)CO [D-Lactitol (2.0), D-Lactitol] | 0.77 Log CFU/mL and 0.66 Log CFU/mL
4 | OC[C@@H](O)[C@@H](O[C@H]1O[C@H](CO)[C@@H](O)[C@H](O)[C@H]1O)[C@H](O)[C@@H](O)CO [Maltitol (2.0), Maltitol] | 0.35 Log CFU/mL and −0.08 Log CFU/mL
5 | O=C(CO)[C@@H](O)[C@H](O)[C@H](O)CO[C@H]1O[C@H](CO)[C@@H](O)[C@H](O)[C@H]1O [Palatinose ™ (2.0), 6-O-α-D-glucopyranosyl-D-fructose] | 2.10 Log CFU/mL and 2.30 Log CFU/mL and 2.77 Log CFU/mL and 3.24 Log CFU/mL and 1.90 Log CFU/mL
6 | OC[C@H]1O[C@@](CO)(OC[C@@]2(O[C@H]3O[C@H](CO)[C@@H](O)[C@H](O)[C@H]3O)O[C@H](CO)[C@@H](O)[C@@H]2O)[C@@H](O)[C@@H]1O [1-Kestose (2.0), 1-Kestose] | 2.59 Log CFU/mL and 3.60 Log CFU/mL and 2.30 Log CFU/mL and 1.95 Log CFU/mL and 2.74 Log CFU/mL

same assay, conditions: co-culture with S. anginosus in API 50 CHL media with prebiotic (% w/v in label), anaerobic 37° C., 48 hours; one value per replicate

Row | SMILES | L. crispatus Recovered on MRS
7 | CO[C@H]1O[C@H](CO)[C@@H](O)[C@H](O)[C@H]1O [α-Methyl-D-Glucoside (2.0), α-Methyl-D-Glucoside] | 7.20 Log CFU/mL and 6.52 Log CFU/mL and 6.78 Log CFU/mL
8 | OC[C@H]1O[C@@H](O[C@@H]2[C@@H](CO)OC(O)(CO)[C@H]2O)[C@H](O)[C@@H](O)[C@H]1O (mixture of isomers) [Lactulose (2.0), Lactulose] | 7.74 Log CFU/mL and 8.10 Log CFU/mL and 8.28 Log CFU/mL and 8.30 Log CFU/mL and 8.11 Log CFU/mL
9 | OC[C@@H](O)[C@@H](O[C@@H]1O[C@H](CO)[C@H](O)[C@H](O)[C@H]1O)[C@H](O)[C@@H](O)CO [D-Lactitol (2.0), D-Lactitol] | 5.90 Log CFU/mL and 6.74 Log CFU/mL
10 | OC[C@@H](O)[C@@H](O[C@H]1O[C@H](CO)[C@@H](O)[C@H](O)[C@H]1O)[C@H](O)[C@@H](O)CO [Maltitol (2.0), Maltitol] | 5.48 Log CFU/mL and 6.00 Log CFU/mL
11 | O=C(CO)[C@@H](O)[C@H](O)[C@H](O)CO[C@H]1O[C@H](CO)[C@@H](O)[C@H](O)[C@H]1O [Palatinose ™ (2.0), 6-O-α-D-glucopyranosyl-D-fructose] | 7.93 Log CFU/mL and 8.00 Log CFU/mL and 8.19 Log CFU/mL and 8.37 Log CFU/mL and 7.98 Log CFU/mL
12 | OC[C@H]1O[C@@](CO)(OC[C@@]2(O[C@H]3O[C@H](CO)[C@@H](O)[C@H](O)[C@H]3O)O[C@H](CO)[C@@H](O)[C@@H]2O)[C@@H](O)[C@@H]1O [1-Kestose (2.0), 1-Kestose] | 7.95 Log CFU/mL and 8.90 Log CFU/mL and 8.00 Log CFU/mL and 7.65 Log CFU/mL and 8.16 Log CFU/mL

tested on: Streptococcus anginosus KC18-1131-3B; assay: Competition (co-culture) assay: recovery of S. anginosus after exposure to prebiotics; format: cell-based; settings: change vs start, background growth in media without prebiotic subtracted; co-culture, 48 hours; one value per replicate
Description: as §1

Row | SMILES | S. anginosus Δ on MRS | S. anginosus Δ on TSA
13 | CO[C@H]1O[C@H](CO)[C@@H](O)[C@H](O)[C@H]1O [α-Methyl-D-Glucoside (2.0), α-Methyl-D-Glucoside] | −0.33 Log CFU/mL and 0.45 Log CFU/mL and 0.55 Log CFU/mL | 0.34 Log CFU/mL and 0.62 Log CFU/mL and 0.41 Log CFU/mL
14 | OC[C@H]1O[C@@H](O[C@@H]2[C@@H](CO)OC(O)(CO)[C@H]2O)[C@H](O)[C@@H](O)[C@H]1O (mixture of isomers) [Lactulose (2.0), Lactulose] | −6.73 Log CFU/mL and −2.23 Log CFU/mL and −2.53 Log CFU/mL and −6.61 Log CFU/mL and −6.08 Log CFU/mL | −3.85 Log CFU/mL and −2.17 Log CFU/mL and −3.70 Log CFU/mL and −3.74 Log CFU/mL and −3.67 Log CFU/mL
15 | OC[C@@H](O)[C@@H](O[C@@H]1O[C@H](CO)[C@H](O)[C@H](O)[C@H]1O)[C@H](O)[C@@H](O)CO [D-Lactitol (2.0), D-Lactitol] | 0.75 Log CFU/mL and 0.69 Log CFU/mL | 0.58 Log CFU/mL and 0.52 Log CFU/mL
16 | OC[C@@H](O)[C@@H](O[C@H]1O[C@H](CO)[C@@H](O)[C@H](O)[C@H]1O)[C@H](O)[C@@H](O)CO [Maltitol (2.0), Maltitol] | −0.12 Log CFU/mL and −0.37 Log CFU/mL | 0.41 Log CFU/mL and 0.47 Log CFU/mL
17 | O=C(CO)[C@@H](O)[C@H](O)[C@H](O)CO[C@H]1O[C@H](CO)[C@@H](O)[C@H](O)[C@H]1O [Palatinose ™ (2.0), 6-O-α-D-glucopyranosyl-D-fructose] | −1.83 Log CFU/mL and −2.08 Log CFU/mL and −2.03 Log CFU/mL and −1.82 Log CFU/mL and −1.69 Log CFU/mL | −1.48 Log CFU/mL and −2.41 Log CFU/mL and −2.00 Log CFU/mL and −2.42 Log CFU/mL and 2.39 Log CFU/mL
18 | OC[C@H]1O[C@@](CO)(OC[C@@]2(O[C@H]3O[C@H](CO)[C@@H](O)[C@H](O)[C@H]3O)O[C@H](CO)[C@@H](O)[C@@H]2O)[C@@H](O)[C@@H]1O [1-Kestose (2.0), 1-Kestose] | −6.61 Log CFU/mL and −6.08 Log CFU/mL and −5.03 Log CFU/mL and −3.64 Log CFU/mL and −3.63 Log CFU/mL | −3.74 Log CFU/mL and −6.45 Log CFU/mL and −4.15 Log CFU/mL and −4.00 Log CFU/mL (2×)

same assay, conditions: co-culture with L. crispatus in API 50 CHL media with prebiotic (% w/v in label), anaerobic 37° C., 48 hours; one value per replicate

Row | SMILES | S. anginosus Recovered on MRS | S. anginosus Recovered on TSA
19 | CO[C@H]1O[C@H](CO)[C@@H](O)[C@H](O)[C@H]1O [α-Methyl-D-Glucoside (2.0), α-Methyl-D-Glucoside] | 5.60 Log CFU/mL and 7.15 Log CFU/mL and 7.40 Log CFU/mL | 6.04 Log CFU/mL and 7.47 Log CFU/mL and 7.54 Log CFU/mL
20 | OC[C@H]1O[C@@H](O[C@@H]2[C@@H](CO)OC(O)(CO)[C@H]2O)[C@H](O)[C@@H](O)[C@H]1O (mixture of isomers) [Lactulose (2.0), Lactulose] | 0.00 Log CFU/mL (3×) and 4.11 Log CFU/mL and 3.40 Log CFU/mL | 2.85 Log CFU/mL and 4.23 Log CFU/mL and 2.00 Log CFU/mL and 2.74 Log CFU/mL and 2.78 Log CFU/mL
21 | OC[C@@H](O)[C@@H](O[C@@H]1O[C@H](CO)[C@H](O)[C@H](O)[C@H]1O)[C@H](O)[C@@H](O)CO [D-Lactitol (2.0), D-Lactitol] | 7.45 Log CFU/mL and 7.54 Log CFU/mL | 7.43 Log CFU/mL and 7.65 Log CFU/mL
22 | OC[C@@H](O)[C@@H](O[C@H]1O[C@H](CO)[C@@H](O)[C@H](O)[C@H]1O)[C@H](O)[C@@H](O)CO [Maltitol (2.0), Maltitol] | 6.58 Log CFU/mL and 6.48 Log CFU/mL | 7.26 Log CFU/mL and 7.60 Log CFU/mL
23 | O=C(CO)[C@@H](O)[C@H](O)[C@H](O)CO[C@H]1O[C@H](CO)[C@@H](O)[C@H](O)[C@H]1O [Palatinose ™ (2.0), 6-O-α-D-glucopyranosyl-D-fructose] | 4.78 Log CFU/mL and 4.00 Log CFU/mL and 4.70 Log CFU/mL and 4.88 Log CFU/mL and 5.16 Log CFU/mL | 5.00 Log CFU/mL and 4.04 Log CFU/mL and 4.70 Log CFU/mL and 4.53 Log CFU/mL and 4.74 Log CFU/mL
24 | OC[C@H]1O[C@@](CO)(OC[C@@]2(O[C@H]3O[C@H](CO)[C@@H](O)[C@H](O)[C@H]3O)O[C@H](CO)[C@@H](O)[C@@H]2O)[C@@H](O)[C@@H]1O [1-Kestose (2.0), 1-Kestose] | 0.00 Log CFU/mL (2×) and 1.70 Log CFU/mL and 2.70 Log CFU/mL and 2.30 Log CFU/mL | 2.74 Log CFU/mL and 0.00 Log CFU/mL and 2.54 Log CFU/mL and 2.40 Log CFU/mL and 1.70 Log CFU/mL

tested on: Lactobacillus crispatus KC18-1173-1 to Streptococcus anginosus KC18-1131-3B; assay: Competition (co-culture) assay: ratio of L. crispatus to S. anginosus recovered; format: cell-based; settings: average CFU/mL L. crispatus on MRS divided by average CFU/mL S. anginosus on TSA, 48 hours
Description: as §1

Row | SMILES | Ratio (L. crispatus/S. anginosus)
25 | CO[C@H]1O[C@H](CO)[C@@H](O)[C@H](O)[C@H]1O [α-Methyl-D-Glucoside (2.0), α-Methyl-D-Glucoside] | 0
26 | OC[C@H]1O[C@@H](O[C@@H]2[C@@H](CO)OC(O)(CO)[C@H]2O)[C@H](O)[C@@H](O)[C@H]1O (mixture of isomers) [Lactulose (2.0), Lactulose] | 37,556
27 | OC[C@@H](O)[C@@H](O[C@@H]1O[C@H](CO)[C@H](O)[C@H](O)[C@H]1O)[C@H](O)[C@@H](O)CO [D-Lactitol (2.0), D-Lactitol] | 0
28 | OC[C@@H](O)[C@@H](O[C@H]1O[C@H](CO)[C@@H](O)[C@H](O)[C@H]1O)[C@H](O)[C@@H](O)CO [Maltitol (2.0), Maltitol] | 0
29 | O=C(CO)[C@@H](O)[C@H](O)[C@H](O)CO[C@H]1O[C@H](CO)[C@@H](O)[C@H](O)[C@H]1O [Palatinose ™ (2.0), 6-O-α-D-glucopyranosyl-D-fructose] | 2,681
30 | OC[C@H]1O[C@@](CO)(OC[C@@]2(O[C@H]3O[C@H](CO)[C@@H](O)[C@H](O)[C@H]3O)O[C@H](CO)[C@@H](O)[C@@H]2O)[C@@H](O)[C@@H]1O [1-Kestose (2.0), 1-Kestose] | 976,001
